Converted amounts (≈) assume the structure as drawn. Where two headings read alike, the source gives them in different places.
Columns and labels:
Test in all cases: Antibacterial activity (MIC), agar dilution
Type in all cases: cell-based
[1] = tested on: Aci. antitratus A-6; settings: 20 h, Aci. antitratus A-6; 10^6 cells per ml; 37° C., 20 hours; read-out: MIC
From the text: (§1) The amount of bacteria inoculated was 10^4 cells per plate (10^6 cells per ml).

[2] = tested on: E. coli NIHJ JC-2; settings: Escherichia coli, NIHJJC2, 20 h
From the text: as §1

[3] = tested on: E. coli TK-111; settings: Escherichia coli, TK111, 20 h
From the text: as §1

[4] = tested on: Ent. cloacae IID977; settings: Enterobacter cloacae, IID977, 20 h
From the text: as §1

[5] = tested on: Kl. pneumoniae Y-41; settings: Klebsiella pneumoniae, Y41, 10^6 cells per ml, 37° C., 20 hours, read-out: MIC
From the text: as §1

[6] = tested on: Kl. pneumoniae Y-50; settings: Klebsiella pneumoniae, Y50, 20 h, 10^6 cells per ml, 37° C.
From the text: as §1

[7] = tested on: Pro. mirabilis T-111; settings: Proteus mirabilis, 37° C.
From the text: as §1

[8] = tested on: Pro. morganii T-216; settings: Morganella morganii, 37° C.
From the text: as §1

[9] = tested on: Pro. vulgaris GN3027; settings: Proteus vulgaris, GN3027, 20 h, Pro. vulgaris GN3027; 10^6 cells per ml; 37° C., 20 hours; read-out: MIC
From the text: as §1

[10] = tested on: Ps. aeruginosa IFO3445; settings: Pseudomonas aeruginosa
From the text: as §1

[11] = tested on: Ps. aeruginosa S-68; settings: Pseudomonas aeruginosa
From the text: as §1

[12] = tested on: St. aureus FDA209P; settings: Staphylococcus aureus, FDA209P, 20 h
From the text: as §1

[13] = tested on: E. coli TK-3*; settings: Escherichia coli, 20 h
From the text: as §1
(§2) * Penicillinase-producing bacteria

[14] = tested on: Kl. pneumoniae Y-4*; settings: Klebsiella pneumoniae, 20 h, Kl. pneumoniae Y-4, penicillinase-producing; 10^6 cells per ml; read-out: MIC
From the text: as §1, §2

[15] = tested on: Ps. aeruginosa GN3379*; settings: Pseudomonas aeruginosa, Ps. aeruginosa GN3379, penicillinase-producing, 10^6 cells per ml
From the text: as §1, §2

[16] = tested on: St. aureus F-137*; settings: Staphylococcus aureus, 20 h
From the text: as §1, §2

[17] = tested on: E. coli GN5482**; settings: Escherichia coli, 20 h; E. coli GN5482, cephalospolinase-producing; 10^6 cells per ml; read-out: MIC
From the text: as §1
(§3) ** Cephalospolinase-producing bacteria

[18] = tested on: Pro. vulgaris GN76**; settings: Proteus vulgaris
From the text: as §1, §3

[19] = tested on: Ps. aeruginosa GN918**; settings: Pseudomonas aeruginosa, Ps. aeruginosa GN918, cephalospolinase-producing, 10^6 cells per ml
From the text: as §1, §3

[20] = E. coli NIHJ JC-2, 10^6 cells per ml, 37° C., 20 hours, read-out: MIC
[21] = E. coli TK-111, 10^6 cells per ml, 37° C., 20 hours, read-out: MIC
[22] = Ent. cloacae IID977, 10^6 cells per ml, 37° C., 20 hours, read-out: MIC
[23] = T111, 10^6 cells per ml, 20 hours, read-out: MIC
[24] = T216, 10^6 cells per ml, 20 hours, read-out: MIC
[25] = Ps. aeruginosa IFO3445, 10^6 cells per ml, 37° C., 20 hours, read-out: MIC
[26] = S68, Ps. aeruginosa S-68, 10^6 cells per ml, 37° C., 20 hours, read-out: MIC
[27] = St. aureus FDA209P, 10^6 cells per ml, 37° C., 20 hours, read-out: MIC
[28] = E. coli TK-3, penicillinase-producing, 10^6 cells per ml, read-out: MIC
[29] = St. aureus F-137, penicillinase-producing, 10^6 cells per ml, read-out: MIC
[30] = 20 h, Pro. vulgaris GN76, cephalospolinase-producing, 10^6 cells per ml, read-out: MIC

SMILES	MIC [1] [µg/mL]	MIC [2, 20] [µg/mL]	MIC [3, 21] [µg/mL]	MIC [4, 22] [µg/mL]	MIC [5] [µg/mL]	MIC ([6]; read-out: MIC) [µg/mL]	MIC [7, 23] [µg/mL]	MIC [8, 24] [µg/mL]	MIC [9] [µg/mL]	MIC [10, 25] [µg/mL]	MIC [11, 26] [µg/mL]	MIC [12, 27] [µg/mL]	MIC [13, 28] [µg/mL]	MIC [14] [µg/mL]	MIC ([15]; 20 h, read-out: MIC) [µg/mL]	MIC [16, 29] [µg/mL]	MIC [17] [µg/mL]	MIC [18, 30] [µg/mL]	MIC ([19]; 20 h, read-out: MIC) [µg/mL]	MIC ([7]; T111, 20 h, 10^6 cells per ml) [µg/mL]	also measured
CN(C)c1ccc(-c2cc(=O)c(C(=O)O)cn2-c2ccc(F)cc2F)cc1	0.39 (≈ 1.05 µM)	0.78 (≈ 2.11 µM)	0.2 (≈ 0.54 µM)	3.13 (≈ 8.45 µM)	6.25 (≈ 16.9 µM)	0.78 (≈ 2.11 µM)	3.13 (≈ 8.45 µM)	3.13 (≈ 8.45 µM)	0.2 (≈ 0.54 µM)	12.5 (≈ 33.8 µM)	12.5 (≈ 33.8 µM)	0.2 (≈ 0.54 µM)	3.13 (≈ 8.45 µM)	6.25 (≈ 16.9 µM)	25 (≈ 67.5 µM)	0.1 (≈ 0.27 µM)	0.1 (≈ 0.27 µM)	0.78 (≈ 2.11 µM)	12.5 (≈ 33.8 µM)	–	–
O=C(O)c1cn(-c2ccc(O)cc2)c(-c2ccc(-c3ccccc3)s2)cc1=O	0.2 (≈ 0.514 µM)	0.39 (≈ 1 µM)	≤ 0.05	–	3.13 (≈ 8.04 µM)	0.78 (≈ 2 µM)	0.78 (≈ 2 µM)	0.78 (≈ 2 µM)	≤ 0.05	–	–	≤ 0.05	0.78 (≈ 2 µM)	1.56 (≈ 4.01 µM)	–	≤ 0.05	≤ 0.05	0.39 (≈ 1 µM)	–	–	MIC [4]: 1.56 µg/mL (≈ 4.01 µM); MIC ([10]; IFO3445, 20 h): 3.13 µg/mL (≈ 8.04 µM); MIC ([11]; S68, 20 h): 3.13 µg/mL (≈ 8.04 µM); MIC ([15]; GN3379, 20 h): 3.13 µg/mL (≈ 8.04 µM); MIC ([19]; GN918, 20 h): 1.56 µg/mL (≈ 4.01 µM)
CC=Cc1cc(=O)c(C(=O)O)cn1-c1ccc(O)cc1C	6.25 (≈ 21.9 µM)	3.13 (≈ 11 µM)	–	6.25 (≈ 21.9 µM)	12.5 (≈ 43.8 µM)	1.56 (≈ 5.47 µM)	25 (≈ 87.6 µM)	3.13 (≈ 11 µM)	0.39 (≈ 1.37 µM)	25 (≈ 87.6 µM)	–	6.25 (≈ 21.9 µM)	3.13 (≈ 11 µM)	25 (≈ 87.6 µM)	25 (≈ 87.6 µM)	–	0.39 (≈ 1.37 µM)	–	6.25 (≈ 21.9 µM)	–	MIC [3]: 1.56 µg/mL (≈ 5.47 µM); MIC ([11]; S68, 20 h): 12.5 µg/mL (≈ 43.8 µM); MIC [16]: 12.5 µg/mL (≈ 43.8 µM); MIC ([18]; GN76, 20 h): 1.56 µg/mL (≈ 5.47 µM)
CN(C)c1ccc(-c2cc(=O)c(C(=O)O)cn2-c2ccc(O)cc2)cc1 [drawing 206]	0.39 (≈ 1.11 µM)	0.2 (≈ 0.571 µM)	0.05 (≈ 0.143 µM)	0.39 (≈ 1.11 µM)	0.78 (≈ 2.23 µM)	–	–	0.78 (≈ 2.23 µM)	0.1 (≈ 0.285 µM)	3.13 (≈ 8.93 µM)	3.13 (≈ 8.93 µM)	0.2 (≈ 0.571 µM)	0.39 (≈ 1.11 µM)	1.56 (≈ 4.45 µM)	3.13 (≈ 8.93 µM)	0.1 (≈ 0.285 µM)	0.05 (≈ 0.143 µM)	0.39 (≈ 1.11 µM)	1.5 (≈ 4.28 µM)	1.56 (≈ 4.45 µM)	MIC [6]: 0.2 µg/mL (≈ 0.571 µM)
CN(C)c1ccc(-c2cc(=O)c(C(=O)O)cn2-c2cccc(O)c2)cc1	0.39 (≈ 1.11 µM)	0.39 (≈ 1.11 µM)	0.1 (≈ 0.285 µM)	0.78 (≈ 2.23 µM)	1.56 (≈ 4.45 µM)	0.39 (≈ 1.11 µM)	–	–	0.2 (≈ 0.571 µM)	12.5 (≈ 35.7 µM)	6.25 (≈ 17.8 µM)	0.2 (≈ 0.571 µM)	0.39 (≈ 1.11 µM)	3.13 (≈ 8.93 µM)	6.25 (≈ 17.8 µM)	0.2 (≈ 0.571 µM)	≤ 0.05	0.78 (≈ 2.23 µM)	12.5 (≈ 35.7 µM)	3.13 (≈ 8.93 µM)	MIC ([8]; T216, 20 h, 10^6 cells per ml): 1.56 µg/mL (≈ 4.45 µM)
CN(C)c1ccc(-c2cc(=O)c(C(=O)O)cn2-c2ccc(F)cc2O)cc1	0.78 (≈ 2.12 µM)	0.78 (≈ 2.12 µM)	–	–	6.25 (≈ 17 µM)	1.56 (≈ 4.23 µM)	–	3.13 (≈ 8.5 µM)	0.39 (≈ 1.06 µM)	12.5 (≈ 33.9 µM)	12.5 (≈ 33.9 µM)	0.2 (≈ 0.543 µM)	–	6.25 (≈ 17 µM)	25 (≈ 67.9 µM)	0.2 (≈ 0.543 µM)	≤ 0.05	–	50 (≈ 136 µM)	6.25 (≈ 17 µM)	MIC [3]: 1.56 µg/mL (≈ 4.23 µM); MIC [4]: 1.56 µg/mL (≈ 4.23 µM); MIC [13]: 1.56 µg/mL (≈ 4.23 µM); MIC ([18]; GN76, 20 h): 1.56 µg/mL (≈ 4.23 µM)
Cc1cc(O)ccc1-n1cc(C(=O)O)c(=O)cc1C1CC2C=CC1C2 (centres unmarked)	6.25 (≈ 18.5 µM)	–	1.56 (≈ 4.62 µM)	12.5 (≈ 37.1 µM)	25 (≈ 74.1 µM)	3.13 (≈ 9.28 µM)	25 (≈ 74.1 µM)	12.5 (≈ 37.1 µM)	0.78 (≈ 2.31 µM)	> 100	> 100	–	12.5 (≈ 37.1 µM)	25 (≈ 74.1 µM)	> 100	–	1.56 (≈ 4.62 µM)	6.25 (≈ 18.5 µM)	50 (≈ 148 µM)	–	MIC [2]: 3.13 µg/mL (≈ 9.28 µM); MIC [12]: 3.13 µg/mL (≈ 9.28 µM); MIC [16]: 3.13 µg/mL (≈ 9.28 µM)
COc1ccc(-c2cc(=O)c(C(=O)O)cn2-c2ccc(O)cc2C)cc1	0.2 (≈ 0.569 µM)	0.1 (≈ 0.285 µM)	0.05 (≈ 0.142 µM)	0.39 (≈ 1.11 µM)	0.78 (≈ 2.22 µM)	0.1 (≈ 0.285 µM)	1.56 (≈ 4.44 µM)	1.56 (≈ 4.44 µM)	≤ 0.05	3.13 (≈ 8.91 µM)	3.13 (≈ 8.91 µM)	0.1 (≈ 0.285 µM)	0.2 (≈ 0.569 µM)	0.78 (≈ 2.22 µM)	12.5 (≈ 35.6 µM)	0.1 (≈ 0.285 µM)	≤ 0.05	0.39 (≈ 1.11 µM)	1.56 (≈ 4.44 µM)	–	–
